The text below walks through data of ChEMBL document CHEMBL5131414, “Design, synthesis, and evaluation of phenylpiperazine-phenylacetate derivatives as rapid recovery hypnotic agents” (Bioorg Med Chem Lett, 2022).

Series [1] deals with GABA-A receptor; anion channel (Homo sapiens) (UniProt P14867+P47870+P18507+P28472+P48169+Q99928+Q9UN88+P34903+O00591+O14764+Q8N1C3+P18505+P78334+P47869+P31644+Q16445). The series is described as follows: Inhibition of GABAA receptor (unknown origin) at 50 uM by radioligand receptor binding assay relative to control. The series is classed as protein-complex assay.
The test system of series [2] is Mus musculus. Briefly: Anesthetic activity in mouse assessed as concentration required to induce hypnotic effect. The series is classed as functional, organism-based.
A short description of series [3]: Therapeutic index, ratio of LD50 for toxicity in mouse to HD50 for anesthetic activity in mouse. The series is classed as organism-based. The note with it: in vivo, read-out: TI.
Series [4] in a line: Toxicity in mouse assessed as lethal dose. The conditions noted are these: in vivo.
Series [5] can be described thus: Lipophilicity, logP of the compound. The series is classed as physicochemical. The note with it: octanol/water.
Series [6] relates to Rattus norvegicus. Briefly: Anesthetic activity in rat assessed as time to walk at 2 times of HD50 concentration. The series is classed as functional.
Series [7] has as its system Rattus norvegicus. The series is described as follows: Anesthetic activity in rat assessed as time duration of loss of righting reflex. The series is classed as functional.
For series [8], the system named is Rattus norvegicus. Briefly: Anesthetic activity in rat assessed as concentration required to induce hypnotic effect. The series is classed as functional, organism-based.
The nature of series [9]: Toxicity in rabbit assessed as lethal dose. Further details: species or system Oryctolagus cuniculus. The conditions noted are these: in vivo.
Series [10] concerns Mus musculus. The series is described as follows: Anesthetic activity in mouse assessed as onset time. The series is classed as functional.
In series [11] the test system is Oryctolagus cuniculus. The series is described as follows: Anesthetic activity in rabbit assessed as concentration required to induce hypnotic effect. The series is classed as functional, organism-based.
For series [12], the system named is Oryctolagus cuniculus. The series is described as follows: Anesthetic activity in rabbit assessed as time duration of loss of righting reflex. The series is classed as functional.
Series [13] has as its system Oryctolagus cuniculus. Briefly: Anesthetic activity in rabbit assessed as onset time. The series is classed as functional.
Series [14] concerns Rattus norvegicus. The series is described as follows: Anesthetic activity in rat assessed as onset time. The series is classed as functional.
Series [15] is described as follows: Therapeutic index, ratio of LD50 for toxicity in rat to HD50 for anesthetic activity in rat. The conditions noted are these: read-out: TI.
A short description of series [16]: Toxicity in rat assessed as lethal dose. The note with it: in vivo.
The nature of series [17]: Therapeutic index, ratio of LD50 for toxicity in rabbit to HD50 for anesthetic activity in rabbit. The conditions noted are these: read-out: TI.
For series [18], the system named is Oryctolagus cuniculus. Briefly: Anesthetic activity in rabbit assessed as time to walk at 2 times of HD50 concentration. The series is classed as functional.
For series [19], the system named is Mus musculus. The series is described as follows: Anesthetic activity in mouse assessed as time duration of loss of righting reflex. The series is classed as functional.
Series [20] relates to Mus musculus. Briefly: Anesthetic activity in mouse assessed as time to walk at 2 times of HD50 concentration. The series is classed as functional.

In turn, `CCOc1cc(CC(=O)OC(C)C)ccc1OCC(=O)N1CCN(c2cccc(C(F)(F)F)c2)CC1` showed an inhibition in series [1] of 54.7%. The “HD50 (median hypnotic dose)” value in series [2] was found to be 31.6 mg/kg. The selectivity ratio in series [3] came out at 5.1. In addition, the LD50 in series [4] was determined as 163 mg/kg. The compound further yielded a log partition coefficient (logP) in [5] of 4.4.

Turning to `CCCOC(=O)Cc1ccc(OCC(=O)N2CCN(c3cccc(C)c3C)CC2)c(OCC)c1`, the inhibition in series [1] amounted to 45.5%. The “HD50 (median hypnotic dose)” value in series [2] amounted to 42.5 mg/kg. The selectivity ratio in [3] is 6.3. The LD50 in [4] is 269 mg/kg. The compound further came in with a logP in series [5] of 4.6.

In series [1], `CCCOC(=O)Cc1ccc(OCC(=O)N2CCN(c3cccc(C(F)(F)F)c3)CC2)c(OCC)c1` gave an inhibition of 49.6%. In series [2], the “HD50 (median hypnotic dose)” value came to 33.6 mg/kg. Moreover, the selectivity ratio in series [3] was found to be 5.2. Moreover, the LD50 in series [4] was 176 mg/kg. The logP in series [5] stood at 4.5.

Compound `CCCOC(=O)Cc1ccc(OCC(=O)N2CCN(c3ccccc3)CC2)c(OC)c1` registered an inhibition in series [1] of 35.6%. For the same compound, the “HD50 (median hypnotic dose)” value in [2] amounted to 33.2 mg/kg. The selectivity ratio in series [3] came to 5.7. Also, the LD50 in [4] turned out to be 190 mg/kg. In [5], this compound had a logP of 3.3.

In series [1], `CCOc1cc(CC(=O)OCC(F)(F)F)ccc1OCC(=O)N1CCN(c2cccc(C)c2C)CC1` came in with an inhibition of 32.1%. Moreover, the “HD50 (median hypnotic dose)” value in [2] came out at 35.6 mg/kg. Further, the selectivity ratio in [3] amounted to 6.4. In addition, the LD50 in series [4] turned out to be 227 mg/kg. In addition, the logP in [5] was 4.7.

Compound `CCOC(=O)Cc1ccc(OCC(=O)N2CCN(c3cccc(C(F)(F)F)c3)CC2)c(OCC)c1` registered an inhibition in [1] of 44.4%. The “HD50 (median hypnotic dose)” value in series [2] was 42.5 mg/kg. Besides, the selectivity ratio in series [3] came to 6.8. In [4], the LD50 turned out to be 289 mg/kg. In addition, the logP in [5] was determined as 4.1.

In the case of `CCCOC(=O)Cc1ccc(OCC(=O)N(CC)CC)c(OCC)c1` [AZD-3043], the Time was 38.4 s in series [6]; 74.2 s in series [7]; 5.6 s in [10]; 221.6 s in series [12]; 19.8 s in series [13]; 12.4 s in [14]. Also, the Time was determined as 89.6 s in series [18], 63.8 s in [19] and 46.7 s in series [20]. In addition, in series [1], the inhibition came to 70.2%. Besides, the EC50 in [8] was 7.9 mg/kg; in series [11] it was 4.6 mg/kg. The LD50 was found to be 77.3 mg/kg in series [9] and 79.8 mg/kg in series [16]. In addition, the “HD50 (median hypnotic dose)” value in series [2] stood at 17.6 mg/kg. Also, the selectivity ratio in series [3] turned out to be 6; in series [15] it was 10.1; in series [17], 16.8. Also, in series [5], the logP was 2.5.

Regarding `CCOC(=O)Cc1ccc(OCC(=O)N2CCN(c3cccc(C)c3C)CC2)c(OCC)c1`, the inhibition in series [1] was 38.7%. For the same compound, the “HD50 (median hypnotic dose)” value in series [2] turned out to be 32.2 mg/kg. Besides, in series [3], the selectivity ratio came to 6.5. For the same compound, the LD50 in series [4] came to 209 mg/kg. In [5], this compound showed a logP of 4.1.

The compound `CCCOC(=O)Cc1ccc(OCC(=O)N2CCN(c3cccc(Cl)c3Cl)CC2)c(OCC)c1` showed an inhibition in [1] of 33.3%. In addition, the “HD50 (median hypnotic dose)” value in [2] came to 38.6 mg/kg. In series [3], the selectivity ratio was 5.2. Also, the 50% lethal dose (LD50) in series [4] was determined as 201 mg/kg. The compound also came in with a logP in [5] of 4.7.

The compound `CCOc1cc(CC(=O)OC(C)C)ccc1OCC(=O)N1CCN(c2cccc(Cl)c2Cl)CC1` registered an inhibition in [1] of 35.9%. Further, the “HD50 (median hypnotic dose)” value in [2] amounted to 39.5 mg/kg. Further, the selectivity ratio in [3] is 6.4. Moreover, in series [4], the LD50 is 254 mg/kg. In series [5], this compound displayed a logP of 4.6.

Compound `CCOc1cc(CC(=O)OCC(F)(F)F)ccc1OCC(=O)N1CCN(c2ccccc2)CC1` yielded an inhibition in series [1] of 70.6%. Besides, the Time in series [10] was 7.1 s; in series [19], 76.5 s; in [20] it was 44.9 s. For the same compound, the “HD50 (median hypnotic dose)” value in series [2] turned out to be 24.8 mg/kg. Besides, the selectivity ratio in series [3] came out at 7.8. Further, the LD50 in series [4] amounted to 193 mg/kg. Moreover, the log partition coefficient (logP) in series [5] was 3.8.

Take `CCOC(=O)Cc1ccc(OCC(=O)N2CCN(c3ccccc3)CC2)c(OCC)c1`: in series [1], the inhibition came to 22.1%. For the same compound, the “HD50 (median hypnotic dose)” value in series [2] was 30.6 mg/kg. For the same compound, the selectivity ratio in [3] came to 6.8. The LD50 in series [4] was 208 mg/kg. Also, in series [5], the log partition coefficient (logP) turned out to be 3.1.

Consider `CCOc1cc(CC(=O)OC(C)C)ccc1OCC(=O)N1CCN(c2ccccc2)CC1`, for which the inhibition in series [1] is 54.2%. Also, the “HD50 (median hypnotic dose)” value in series [2] is 36.8 mg/kg. In [3], the selectivity ratio was determined as 7.2. For the same compound, the 50% lethal dose (LD50) in [4] is 265 mg/kg. The compound further registered a lipophilicity (logP) in series [5] of 3.5.

In turn, `COc1cc(CC(=O)OCC(F)(F)F)ccc1OCC(=O)N1CCN(c2cccc(Cl)c2Cl)CC1` displayed an inhibition in [1] of 39.4%. In addition, the “HD50 (median hypnotic dose)” value in series [2] was 34.5 mg/kg. Besides, the selectivity ratio in [3] is 6.5. Also, the median lethal dose (LD50) in [4] was found to be 225 mg/kg. This compound also returned a logP in series [5] of 4.6.

In series [1], `CCOc1cc(CC(=O)OCC(F)(F)F)ccc1OCC(=O)N1CCN(c2cccc(C(F)(F)F)c2)CC1` displayed an inhibition of 38.8%. Besides, in [2], the “HD50 (median hypnotic dose)” value stood at 31.2 mg/kg. Moreover, in [3], the selectivity ratio was determined as 6.3. Besides, in series [4], the LD50 was 198 mg/kg. In series [5], this compound displayed a logP of 4.7.

Regarding `CCOc1cc(CC(=O)OC(C)C)ccc1OCC(=O)N1CCN(c2cccc(C)c2C)CC1`, the inhibition in [1] stood at 42.7%. Moreover, the “HD50 (median hypnotic dose)” value in series [2] was found to be 31.4 mg/kg. Also, in series [3], the selectivity ratio was 6.4. Moreover, in series [4], the 50% lethal dose (LD50) is 200 mg/kg. In series [5], the logP was determined as 4.4.

With `CCCOC(=O)Cc1ccc(OCC(=O)N(CC)CC)c(OC)c1` [PROPANIDID], the Time in [6] came to 58.7 s; in [7], 93.3 s; in [10], 6.7 s; in [12] it was 265.4 s; in [13] it was 22.6 s; in [14] it was 16.3 s. The Time came out at 124.5 s in [18], 89.6 s in [19] and 56.3 s in series [20]. In [1], this compound gave an inhibition of 83.2%. Besides, the EC50 in series [8] came out at 8.4 mg/kg; in series [11] it was 5.1 mg/kg. Further, the results for the LD50 in series [9] and in series [16] were 75.4 mg/kg and 81 mg/kg, respectively. In addition, the selectivity ratio was found to be 5.6 in series [3], 9.6 in series [15] and 14.7 in series [17]. Besides, the lipophilicity (logP) in series [5] stood at 2.1.

As to `COc1cc(CC(=O)OCC(F)(F)F)ccc1OCC(=O)N1CCN(c2ccccc2)CC1`, the inhibition in series [1] is 29.9%. In addition, in series [2], the “HD50 (median hypnotic dose)” value was determined as 30.8 mg/kg. Further, in series [3], the selectivity ratio amounted to 6.5. Moreover, in series [4], the LD50 was 200 mg/kg. Besides, the logP in series [5] came to 3.4.

Consider `CCOC(=O)Cc1ccc(OCC(=O)N2CCN(c3cccc(Cl)c3Cl)CC2)c(OCC)c1`, for which the inhibition in [1] stood at 42.1%. The “HD50 (median hypnotic dose)” value in series [2] worked out at 36.5 mg/kg. Moreover, the selectivity ratio in [3] is 6.5. For the same compound, in [4], the median lethal dose (LD50) turned out to be 237 mg/kg. In addition, in [5], the logP is 4.3.

As a reminder, the inhibition is the share of the control response that was lost under treatment. As a reminder, the LD50 is the dose at which mortality reaches 50%. Usually logP stands for the decadic logarithm of the partition coefficient of the neutral form, usually between octanol and water. High values mean higher lipophilicity, low ones lower lipophilicity.
